ChEMBL document CHEMBL1201862, “PubChem BioAssay data set” (2004)
The source made the active and inactive calls.

Tests used:
Type in all cases: functional
[1] = molecular target: T1, Hexokinase HKDC1 (Homo sapiens, UniProt Q2TB90); assay: SAR analysis of small molecule inhibitors of hexokinase domain containing I (HKDC1). [Related pubchem assays (depositor defined):AID493160, AID493190]
T1 sequence (Q2TB90 whole entry): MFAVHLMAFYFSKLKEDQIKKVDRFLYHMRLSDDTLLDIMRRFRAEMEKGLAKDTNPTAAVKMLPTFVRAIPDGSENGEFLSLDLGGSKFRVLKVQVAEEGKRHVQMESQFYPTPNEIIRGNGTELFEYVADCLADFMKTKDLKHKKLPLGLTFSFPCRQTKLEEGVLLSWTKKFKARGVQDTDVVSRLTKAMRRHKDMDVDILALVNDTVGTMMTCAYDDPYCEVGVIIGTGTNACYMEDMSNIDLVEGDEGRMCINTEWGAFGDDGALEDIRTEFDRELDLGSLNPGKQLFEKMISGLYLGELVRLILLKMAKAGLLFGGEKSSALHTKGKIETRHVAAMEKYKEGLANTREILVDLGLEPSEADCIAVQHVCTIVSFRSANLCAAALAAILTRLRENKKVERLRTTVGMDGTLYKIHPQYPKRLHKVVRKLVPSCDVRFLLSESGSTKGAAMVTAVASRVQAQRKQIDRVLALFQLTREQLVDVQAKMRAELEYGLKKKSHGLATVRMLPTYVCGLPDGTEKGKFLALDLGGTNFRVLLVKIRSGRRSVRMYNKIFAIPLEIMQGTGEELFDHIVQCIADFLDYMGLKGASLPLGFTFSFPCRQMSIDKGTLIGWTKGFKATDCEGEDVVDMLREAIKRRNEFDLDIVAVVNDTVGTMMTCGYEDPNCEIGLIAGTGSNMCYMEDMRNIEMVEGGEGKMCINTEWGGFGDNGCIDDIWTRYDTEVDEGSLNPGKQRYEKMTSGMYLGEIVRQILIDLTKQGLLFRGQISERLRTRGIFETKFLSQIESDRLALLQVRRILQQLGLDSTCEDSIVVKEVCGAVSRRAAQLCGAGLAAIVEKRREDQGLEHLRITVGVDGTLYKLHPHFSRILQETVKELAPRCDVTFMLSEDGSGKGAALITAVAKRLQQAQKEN

[2] = molecular target: T2, Hexokinase-1 (Homo sapiens, UniProt P19367); assay: SAR analysis of small molecule inhibitors of hexokinase domain containing I (HKDC1) in the hexokinase 1 selectivity assay. [Related pubchem assays (depositor defined):AID493160, AID493190]
T2 sequence (P19367 whole entry): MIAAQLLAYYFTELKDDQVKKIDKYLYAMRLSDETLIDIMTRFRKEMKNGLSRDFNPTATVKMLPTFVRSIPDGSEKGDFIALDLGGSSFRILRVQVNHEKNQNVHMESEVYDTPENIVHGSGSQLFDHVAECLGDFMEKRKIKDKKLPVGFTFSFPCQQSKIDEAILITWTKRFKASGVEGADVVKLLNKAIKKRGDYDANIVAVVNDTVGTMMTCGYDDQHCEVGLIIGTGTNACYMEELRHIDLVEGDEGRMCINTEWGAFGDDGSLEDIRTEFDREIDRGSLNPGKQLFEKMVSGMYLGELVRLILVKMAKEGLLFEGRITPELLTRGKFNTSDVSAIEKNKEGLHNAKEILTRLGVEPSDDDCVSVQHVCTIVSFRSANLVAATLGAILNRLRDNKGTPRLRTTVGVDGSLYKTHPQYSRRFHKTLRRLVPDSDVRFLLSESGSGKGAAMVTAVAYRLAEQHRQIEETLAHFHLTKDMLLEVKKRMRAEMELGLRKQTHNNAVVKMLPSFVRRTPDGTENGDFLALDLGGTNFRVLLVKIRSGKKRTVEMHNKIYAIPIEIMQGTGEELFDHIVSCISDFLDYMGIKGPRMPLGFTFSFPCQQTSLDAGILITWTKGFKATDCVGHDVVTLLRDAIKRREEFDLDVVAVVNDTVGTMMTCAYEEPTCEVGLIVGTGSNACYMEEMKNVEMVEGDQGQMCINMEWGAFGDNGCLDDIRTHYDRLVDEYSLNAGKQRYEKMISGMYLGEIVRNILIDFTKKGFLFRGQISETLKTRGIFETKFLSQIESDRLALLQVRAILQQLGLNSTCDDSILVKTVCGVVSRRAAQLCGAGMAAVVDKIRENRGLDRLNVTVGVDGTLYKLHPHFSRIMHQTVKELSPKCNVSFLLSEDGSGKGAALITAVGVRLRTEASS

[3] = molecular target: Mu-type opioid receptor (Homo sapiens, UniProt P35372); assay: (§1) Counterscreen for agonists of heterodimerization of the mu 1 (OPRM1) and delta 1 (OPRD1) opioid receptors: Luminescence-based cell-based high throughput dose response assay to identify agonists of OPRM1 homodimerization.
Mu-type opioid receptor, sequence (P35372 whole entry): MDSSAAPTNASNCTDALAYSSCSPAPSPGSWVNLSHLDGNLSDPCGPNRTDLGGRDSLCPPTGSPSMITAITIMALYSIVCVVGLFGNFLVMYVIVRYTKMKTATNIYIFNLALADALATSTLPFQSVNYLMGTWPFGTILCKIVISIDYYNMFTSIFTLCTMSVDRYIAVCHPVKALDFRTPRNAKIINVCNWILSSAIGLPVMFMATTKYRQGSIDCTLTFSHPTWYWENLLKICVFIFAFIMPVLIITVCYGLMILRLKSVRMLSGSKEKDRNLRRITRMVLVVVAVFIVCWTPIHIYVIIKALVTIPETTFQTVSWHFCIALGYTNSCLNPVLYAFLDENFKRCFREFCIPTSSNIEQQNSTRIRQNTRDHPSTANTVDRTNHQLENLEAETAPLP

[4] = molecular target: Delta-type opioid receptor (Homo sapiens, UniProt P41143); assay: as §1, with “of OPRD1” for “of OPRM1”, “homodimerization. [Related pubchem assays (depositor defined):AID504326, AID504355, AID504692, AID504904, AID504905]” for “homodimerization.”
Delta-type opioid receptor, sequence (P41143 whole entry): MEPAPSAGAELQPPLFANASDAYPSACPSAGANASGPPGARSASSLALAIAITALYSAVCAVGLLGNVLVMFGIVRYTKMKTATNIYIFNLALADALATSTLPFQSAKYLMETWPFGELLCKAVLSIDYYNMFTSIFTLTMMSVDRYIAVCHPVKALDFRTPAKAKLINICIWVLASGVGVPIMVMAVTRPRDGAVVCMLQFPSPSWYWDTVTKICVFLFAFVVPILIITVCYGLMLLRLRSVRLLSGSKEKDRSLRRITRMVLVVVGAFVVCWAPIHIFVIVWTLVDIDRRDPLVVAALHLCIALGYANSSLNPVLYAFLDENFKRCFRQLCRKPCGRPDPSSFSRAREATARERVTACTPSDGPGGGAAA

[5] = molecular target: T3, Short transient receptor potential channel 4 (Mus musculus, UniProt Q9QUQ5); assay: calcium entry via TRPC4 opening agents – cell-based, HEK293 TRPC4/mu-opioid, Fluo-4 calcium, dose response (AID 434937)
T3 sequence (Q9QUQ5 whole entry): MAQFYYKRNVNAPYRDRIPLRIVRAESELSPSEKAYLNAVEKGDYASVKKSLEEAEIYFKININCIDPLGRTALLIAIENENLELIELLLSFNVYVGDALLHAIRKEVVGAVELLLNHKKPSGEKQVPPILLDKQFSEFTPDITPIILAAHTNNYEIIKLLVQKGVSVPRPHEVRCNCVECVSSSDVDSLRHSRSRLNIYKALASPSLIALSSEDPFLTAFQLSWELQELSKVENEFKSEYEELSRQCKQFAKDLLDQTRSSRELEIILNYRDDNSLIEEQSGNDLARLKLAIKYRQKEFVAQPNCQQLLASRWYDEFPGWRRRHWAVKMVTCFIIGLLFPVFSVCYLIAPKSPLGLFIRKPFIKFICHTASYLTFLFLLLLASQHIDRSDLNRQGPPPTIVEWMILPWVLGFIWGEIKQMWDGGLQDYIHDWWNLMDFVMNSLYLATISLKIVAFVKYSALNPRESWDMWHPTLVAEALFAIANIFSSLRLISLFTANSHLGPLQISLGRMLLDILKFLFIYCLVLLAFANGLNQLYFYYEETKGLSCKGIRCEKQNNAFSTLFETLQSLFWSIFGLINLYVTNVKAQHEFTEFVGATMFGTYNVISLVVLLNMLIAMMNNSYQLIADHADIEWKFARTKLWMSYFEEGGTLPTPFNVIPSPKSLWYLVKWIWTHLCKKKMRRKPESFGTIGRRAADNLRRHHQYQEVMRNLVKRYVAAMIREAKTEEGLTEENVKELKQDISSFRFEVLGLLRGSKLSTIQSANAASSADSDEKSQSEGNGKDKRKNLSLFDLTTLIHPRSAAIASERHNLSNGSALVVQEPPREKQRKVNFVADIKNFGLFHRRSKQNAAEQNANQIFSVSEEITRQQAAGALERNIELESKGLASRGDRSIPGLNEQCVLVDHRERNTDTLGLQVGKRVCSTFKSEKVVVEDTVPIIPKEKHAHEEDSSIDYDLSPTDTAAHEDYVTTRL

[6] = molecular target: Opioid receptors; mu & delta (Homo sapiens, UniProt P41143+P35372); assay: OPRM1-OPRD1 heterodimer agonist potency – cell-based, luminescence, dose response (AID 588407)
[7] = molecular target: 5-hydroxytryptamine receptor 5A (Homo sapiens, UniProt P47898); assay: Counterscreen for agonists of OPRM1-OPRD1 heterodimerization: luminescence-based cell-based high throughput dose response assay to identify agonists of 5-hydroxytryptamine (serotonin) 5A receptor (HTR5A). [Related pubchem assays (depositor defined):AID504326, AID504355, AID504692, AID504904, AID504905]
5-hydroxytryptamine receptor 5A, sequence (P47898 whole entry): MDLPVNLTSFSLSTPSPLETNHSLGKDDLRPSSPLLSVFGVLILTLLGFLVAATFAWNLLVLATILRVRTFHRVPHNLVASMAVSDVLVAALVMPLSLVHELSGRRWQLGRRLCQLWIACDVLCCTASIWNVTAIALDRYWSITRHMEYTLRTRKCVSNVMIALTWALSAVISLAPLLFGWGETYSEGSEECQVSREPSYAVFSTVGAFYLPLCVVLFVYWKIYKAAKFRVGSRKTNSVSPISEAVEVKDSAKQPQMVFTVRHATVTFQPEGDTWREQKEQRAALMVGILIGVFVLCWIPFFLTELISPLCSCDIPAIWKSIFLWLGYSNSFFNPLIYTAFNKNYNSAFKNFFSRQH

SMILES: O=c1c2ccccc2nc(/C=C/c2cccc(O)c2)n1Cc1ccccc1
- IC50 [1]: > 80 µM (inactive)
- IC50 [2]: > 80 µM (inactive)

SMILES: Cc1ccc(-n2cc(CNC(C)c3cnn(C)c3C)c(-c3ccc(F)cc3)n2)cc1 (configuration not stated)
- EC50 [3]: 13 µM (inactive)
- EC50 [4]: 50 µM (inactive)
- EC50 [5]: 376 nM (active)
- EC50 [6]: > 0.1268 µM
- EC50 [7]: > 92.5 µM (inactive)
